Source: patent US8999956B2, “N-[(het)arylalkyl)] pyrazole(thio)carboxamides and their heterosubstituted analogues” (Bayer Intellectual Property GmbH, priority 2010, dated 2015)
Values joined by “and” are separate entries in the source; they are usually repeats but may differ in a detail not shown here. Equal entries are not always repeated. Where two headings read alike, the source gives them in different places.

How the values were obtained:
Aspergillus parasiticus = test: microbe, parasite or virus in culture; assay type: cell-based
[1] = test system: aflatoxines produced by Aspergillus parasiticus; test: microbe, parasite or virus in culture; assay type: cell-based
[2] = test system: Fusarium nivale (var. majus); test: In vivo preventive test on Fusarium nivale (wheat); settings: 500 ppm of active ingredient, evaluated 5 days after inoculation
Protocol: Solvent: 49 parts by weight of N,N-dimethylacetamide Emulsifier: 1 part by weight of alkylaryl polyglycol ether To produce a suitable preparation of active compound, 1 part by weight of active compound or active compound combination is mixed with the stated amounts of solvent and emulsifier, and the concentrate is diluted with water to the desired concentration. To test for preventive activity, young plants are sprayed with the preparation of active compound or active compound combination at the stated rate of application. After the spray coating has been dried, the plants are slightly injured by using a sandblast and afterwards they are sprayed with a conidia suspension of Fusarium nivale (var. majus).

Sphaerotheca fuliginea = test: In vivo preventive test on Sphaerotheca fuliginea (cucumber); settings: 500 ppm of active ingredient, evaluated 7 days after inoculation
How it was run: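 Young cucumber plants sprayed with compound (in DMF with alkylarylpolyglycolether emulsifier, diluted in water) at the stated application rate. Inoculated one day later with aqueous Sphaerotheca fuliginea spore suspension. Plants then held in greenhouse at approximately 23° C and approximately 70% relative humidity.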

Phakopsora pachyrhizi = test: In vivo protective test on Phakopsora pachyrhizi (soybeans); settings: Table N, 250 ppm of active ingredient, evaluated 11 days after inoculation
Uromyces appendiculatus = test: In vivo preventive test on Uromyces appendiculatus (beans); settings: 100 ppm of active ingredient, evaluated 10 days after inoculation
How it was run: (§1)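 Young plants sprayed preventively at the stated application rate with compound dissolved in acetone/N,N-dimethylacetamide plus alkylaryl polyglycol ether emulsifier and diluted with water to the desired concentration.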

Pyricularia oryzae = settings: in vivo
Venturia inaequalis = test: In vivo preventive test on Venturia inaequalis (apple scab); settings: 100 ppm of active ingredient, evaluated 10 days after inoculation
How it was run: as §1

Cochliobolus miyabeanus = test: In vivo protective test on Cochliobolus miyabeanus (rice); settings: Table M, 250 ppm of active ingredient, evaluated 4 days after inoculation
Septoria tritici = test: In vivo preventive test on Septoria tritici (wheat); settings: 500 ppm of active ingredient, evaluated 21 days after inoculation
How it was run: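 Compound formulated in N,N-dimethylacetamide with alkylaryl polyglycol ether emulsifier and diluted in water to the stated rate. Young wheat plants sprayed preventively; after the deposit dried, they were inoculated with a Septoria tritici spore suspension.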

Alternaria solani = test: In vivo preventive test on Alternaria solani (tomato); settings: 500 ppm of active ingredient, evaluated 7 days after inoculation
How it was run: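 Young tomato plants sprayed preventively with compound in DMF/alkylarylpolyglycolether emulsion diluted in water to the stated rate. Inoculation with aqueous Alternaria solani spore suspension one day after treatment.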

Pyrenophora teres = test: In vivo preventive test on Pyrenophora teres (barley); settings: 500 ppm of active ingredient, evaluated 7-9 days after inoculation
How it was run: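 Compound formulated in N,N-dimethylformamide with alkylaryl polyglycol ether emulsifier and diluted in water, then sprayed on young barley plants at the stated application rate. Plants inoculated one day later with aqueous Pyrenophora teres spore suspension, testing preventive protection.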

[3] = test system: Blumeria graminis fsp. hordei; test: In vivo preventive test on Blumeria graminis (barley); settings: 500 ppm of active ingredient, evaluated 7 days after inoculation
How it was run: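 Active compound taken up in N,N-dimethylacetamide with alkylaryl polyglycol ether emulsifier, then diluted in water to the desired concentration. Young barley plants sprayed at the stated application rate; once the coating had dried, plants were dusted with Blumeria graminis f. sp. hordei spores.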

Puccinia triticina = test: In vivo preventive test on Puccinia triticina (wheat); settings: Table K, 500 ppm of active ingredient, evaluated 8 days after inoculation
Leptosphaeria nodorum = test: In vivo preventive test on Leptosphaeria nodorum (wheat); settings: 500 ppm of active ingredient, evaluated 7-9 days after inoculation
How it was run: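 Compound formulated in N,N-dimethylacetamide with alkylaryl polyglycol ether emulsifier and diluted with water. Young wheat plants were sprayed at the stated application rate, then inoculated one day later with an aqueous spore suspension of L. nodorum.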

Botrytis cinerea = test: In vivo preventive test on Botrytis cinerea (beans); settings: Table L, 500 ppm of active ingredient, lesion size 2 days after inoculation
How it was run: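 Young bean plants sprayed preventively with compound in acetone/dimethylacetamide/emulsifier diluted in water; after drying, each leaf inoculated with 2 agar pieces bearing Botrytis cinerea. Kept dark at 20° C, 100% humidity; lesion size scored at 2 days as % efficacy (0% = untreated, 100% = no disease).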

[4] = log P by HPLC on reversed-phase column (EEC Directive 79/831 Annex V.A8); assay type: physicochemical
Protocol: In table 1, the log P values were determined in accordance with EEC Directive 79/831 Annex V.A8 by HPLC (High Performance Liquid Chromatography) on a reversed-phase column (C18), using the method described below: Temperature: 40° C.; […]

Fusarium graminearum = settings: in vivo

Structure (SMILES) | % Inhibition of fungal growth at 50 μM (Aspergillus parasiticus; 50 µM) [%] | % Inhibition of Aflatoxin at 50 μM ([1]; 50 µM) [%] | Efficacy [2] [%] | Efficacy (Sphaerotheca fuliginea) [%] | Efficacy (Phakopsora pachyrhizi) [%] | Efficacy (Uromyces appendiculatus) [%] | Efficacy (Pyricularia oryzae) [%] | Efficacy (Venturia inaequalis) [%] | Efficacy (Cochliobolus miyabeanus) [%] | Efficacy (Septoria tritici) [%] | Efficacy (Alternaria solani) [%] | Efficacy (Pyrenophora teres) [%] | Efficacy [3] [%] | Efficacy (Puccinia triticina) [%] | % Inhibition of Aflatoxin at 50 μM [1] [%] | Efficacy (Leptosphaeria nodorum) | Efficacy (Botrytis cinerea) [%] | logP [4] | % Inhibition of fungal growth at 50 μM (Aspergillus parasiticus) [%] | Efficacy (Fusarium graminearum) [%]
CC(C)CC(C)C1CCCC1NC(=O)c1c(C(F)F)nn(C)c1Cl (mixture of isomers) [Example 311] | 97 | 100 | 100 | 90 | 98 | 100 | 96 | 100 | 97 | 93 | 100 | 100 | 100 | 100 |  |  |  |  |  | 
CCCCC1CCCCC1NC(=O)c1c(C(F)F)nn(C)c1F (single isomer, unassigned) [Example 329] | 97 |  | 100 | 100 |  | 100 | 98 | 100 | 98 | 100 | 100 | 100 | 100 | 100 | 100 | 90% | 99 | 3.80 isomer A |  | 
CC(C)CC(C)C1CCCCC1NC(=O)c1c(C(F)F)nn(C)c1F (single isomer, unassigned) [Example 338] |  |  | 100 | 100 | 98 |  | 97 | 100 | 96 | 100 | 100 | 100 | 100 | 100 | 100 |  |  | 4.73 isomer B | 100 | 
Cn1nc(C(F)F)c(C(=O)NC2CCCCC2CCC(C)(C)C)c1F (single isomer, unassigned) [Example 357] |  |  | 100 | 100 | 85 | 100 | 97 | 100 | 93 | 100 | 100 | 100 | 100 | 100 |  |  |  | 4.50 isomer A |  | 
Cn1nc(C(F)F)c(C(=O)N(CCOc2c(Cl)cccc2Cl)C2CC2)c1Cl [Example 161] |  |  |  |  |  |  |  |  |  | 80 |  | 100 | 100 | 90 |  | 90% |  | 3.69 |  | 86
Cn1nc(C(F)F)c(C(=O)N(CCOc2c(Cl)cccc2Cl)C2CC2)c1F [Example 162] | 100 | 100 |  | 95 |  |  |  |  |  | 90 |  | 95 | 100 | 80 |  | 90% |  | 3.55 |  | 100
Cn1nc(C(F)F)c(C(=O)N(CC#Cc2ccccc2)C2CC2)c1F [Example 271] |  |  |  | 98 |  |  |  |  |  | 88 |  | 95 | 78 | 89 |  | 90% |  | 3.19 |  | 93
CC(C)CC(C)C1CCCCC1NC(=O)c1c(C(F)F)nn(C)c1F (centres unmarked) [Example 339] |  |  | 100 | 100 | 98 | 100 | 98 | 100 | 92 | 100 | 100 | 94 | 100 | 100 | 100 | 70% and 94% |  | 4.54 | 100 | 
